Test results published in patent publication US8609695B2, “Methods of treating and/or suppressing insulin resistance” (Endorecherche, Inc., priority 1999, dated 2013).

Assays:
[1] = system: ovariectomized female rats; assay: 20-day treatment with EM-652.HCl, estradiol and DHEA, body fat (Example 6); assay type: in vivo, Rattus norvegicus; conditions: OVX rats; for decrease of body fat / decrease of retroperitoneal adipose tissue: 20 days; for Retroperitoneal adipose tissue / Fat %: enriched carbohydrate diet, 20 days oral, EM-652.HCl 0.5, E2 0.5, DHEA 100 mg/rat; for Fat %: DEXA day 21
From the text: d) Diet: Certified Rodent feed (Lab Diet #5002, pellets) and tap water were provided ad libitum during the acclimation period. During the study period, the rats received an enriched carbonhydrate diet ad libitum. The enriched diet (diet #3) was composed of (g/100 g): Corn starch, 31.2; Dextrose, 31.2; Casein, 20.0; Corn oil, 6.4; dl-Methionine, 0.3; Vitamin mix, 1.0; AIN-76 mineral mix, 4.9; Fiber, 5.0.
80 rats were assigned to 8 groups of 10 rats for the conduct of the study outlined below:
On day 0 of the study, rats from groups 2 to 8 were ovariectomized, by bilateral flank incision, under Isoflurane-induced anesthesia. Rats from group 1 were sham-operated.
The administration of the test articles or vehicle began on Day 1 (the day following the ovariectomy). The tested compounds were given as suspensions in 0.4% methylcellulose by oral gavage (0.5 ml/gavage) for 20 days.
On day 21 of the study (prior to the necropsy), body composition was determined on whole body skeleton of animals under Isoflurane-induced anesthesia using dual energy x-ray absorptiometry (DEXA; QDR 4500A, Hologic) in order to determine the effect of treatments on fat percentage.
Right and left retroperitoneal adipose tissue were collected and weighed.

[2] = system: intact (INT) and ovariectomized (OVX) female rats; assay: EM-652.HCl and DHEA, energy balance and lipid-lipoprotein metabolism, high sucrose-high fat diet (Example 9); assay type: in vivo; conditions: 20 days, EM-652.HCl 0.5 mg/rat per os, DHEA 20 mg/rat topical
Procedure: The objective of this study was to determine the effects of EM-652.HCl and DHEA, administered alone or in combination, on energy balance and lipid-lipoprotein metabolism in rats. The effect of treatments was evaluated on many parameters following a 20-day treatment with EM-652.HCl (0.5 mg/rat, ˜2.5 mg/kg, per os) and DHEA (20 mg/rat, ˜100 mg/kg, topical application), administered alone or in combination, to intact (INT) and ovariectomized (OVX) female rats receiving a high sucrose-high fat diet. For comparison, one intact and ovariectomized control group received the enriched diet while other control animals (intact and OVX) received the commercial rodent diet.
d) Diet: • During the acclimation period, rats received a commercial rodent diet (Purina, #5075) and tap water ad libitum. During study period, groups 1 & 2 continued to receive the commercial diet while groups 3 to 10 received a high sucrose-high fat diet composed of (g/100 g): Sucrose, 45; Corn oil, 10; Lard, 10; Casein, 22.5; dl-Methionine, 0.3; Vitamin mix, 1.2; AIN-76 mineral mix, 5.5; Fiber, 5.5.44
80 rats were assigned to 10 groups of 8 rats for conduct of the study outlined below.
On day 0 of the study, rats from the appropriate groups were ovariectomized (by bilateral flank incision) under Isoflurane anesthesia. Intact rats were sham-operated.
Administration of the tested compounds or vehicle started the day following the ovariectomy (Day 1). […] Rats from control groups received the vehicle alone (per os and topically). Rats were killed on day 21 of the study approximately 24 hours after the last dosing.
Rats were weighed on day 0 (surgery), every 2 days during the study period and on the day of necropsy. Body weights were recorded with a precision of 1.0 g.
On day 21 of the study, overnight fasted rats were killed approximately 24 hours after the last dosing. They were anesthesized with ketamine-xylazine and blood drawn by cardiac punction.
Blood lipids (Total cholesterol and Triglycerides) were measured on frozen serum samples using the Boehringer Mannheim Diagnostic Hitachi 911 Analyzer (Boehringer Mannheim Diagnostic Laboratory Systems). Circulating hormones and substrates (Insulin, leptin, glucose) were measured on serum samples as follow: • Insulin: Linco RIA kit • Glucose: Beckmann automatic glucose analyser • Leptin: Linco RIA kit Organs and Tissues Collected
The following tissues were collected and weighed for all animals: • Muscle (soleus and VLM), fat (retroperitoneal and inguinal), and brown adipose tissue.
A piece of liver was frozen for later determination of TG and CHOL content (Folchis method) while the other tissues were processed for determination of LPL activity.

[3] = system: ovariectomized female rats; assay: Uterine weight, fat and lipid, 20-day treatment (Example 13); assay type: in vivo, Rattus norvegicus; conditions: 20 days
Procedure: The objective of this study was to compare the effect on uterine, weight, fat and blood lipids following treatment with EM-652.HCl, ERA-923 and lasofoxifene, administered alone or in combination with EM-652.HCl, to ovariectomized female rats. For this purpose, each compound was administered orally for 20 days to ovariectomized female rats and at the end of the treatment period, the uterus and fat were collected and weighed.
d) Diet: • Certified Rodent feed (Lab Diet #5002, pellets) and tap water were provided ad libitum. Randomization:
Seventy rats were separated into 7 groups of 9 to 11 animals for conduct of the study outlined below:
Animals from groups 2 to 9 were ovariectomized under Isoflurane-induced anesthesia on Day 7 of the study.
The vehicle or tested compounds were given as suspension in 0.4% methylcellulose by oral gavage (0.5 ml/gavage/rat) from Day 2 to Day 21 of the study.
Rats were weighed on Study Day 1 and at the necropsy (SD 22).
Approximately 24 hours after the last dosing, overnight fasted rats under Isoflurane-induced anesthesia were killed by exsanguination at the abdominal aorta.
Uteri and retroperitonal adipose tissue were removed and weighed.

[4] = OVX rats, commercial rodent diet, 0.5 mg oral, EM-652.HCl 2.5 mg in combinations

CC1=C(c2ccc(O)cc2)[C@H](c2ccc(OCCN3CCCCC3)cc2)Oc2cc(O)ccc21.Cl [EM-652.HCl, (S)-(+)-7-hydroxy-3-(4′-hydroxyphenyl)-4-methyl-2-(4″-(2′″-piperidino-ethoxy)phenyl)-2H-1-benxopyran hydrochloride]
decrease of body fat [1]: 46%
decrease of retroperitoneal adipose tissue [1]: 59%
Retroperitoneal adipose tissue [1]: 1.52 ± 0.18 g
Fat % [1]: 10.2 ± 1.2%
Brown adipose tissue Lipoprotein lipase activity ([2]; OVX rats): 678 ± 65 μU/g protein
Brown adipose tissue weight ([2]; OVX rats): 0.408 ± 0.025 g
Plasma glucose ([2]; OVX rats): 9.06 ± 0.30 mmol/L
Plasma insulin ([2]; OVX rats): 0.089 ± 0.013 nmol/L
Plasma leptin ([2]; OVX rats): 1.989 ± 0.326 ng/mL
Plasma total cholesterol ([2]; OVX rats): 1.15 ± 0.11 mmol/L
Plasma triglycerides ([2]; OVX rats): 0.97 ± 0.16 mmol/L
Soleus muscle Lipoprotein lipase activity ([2]; OVX rats): 39.1 ± 5.0 μU/g protein
Soleus muscle weight ([2]; OVX rats): 0.104 ± 0.004 g
Total weight ([2]; OVX rats): 268 ± 5 g
VastusLateralis muscle Lipoprotein lipase activity ([2]; OVX rats): 10.8 ± 3.2 μU/g protein
VastusLateralis muscle weight ([2]; OVX rats): 0.944 ± 0.030 g
White adipose tissue inguinal Lipoprotein lipase activity ([2]; OVX rats): 310 ± 63 μU/g protein
White adipose tissue inguinal weight ([2]; OVX rats): 0.709 ± 0.085 g
White adipose tissue retroperitoneal Lipoprotein lipase activity ([2]; OVX rats): 1612 ± 186 μU/g protein
White adipose tissue retroperitoneal weight ([2]; OVX rats): 1.370 ± 0.211 g
liver total cholesterol ([2]; OVX rats): 0.092 ± 0.006 mmol/L
liver triglycerides ([2]; OVX rats): 0.348 ± 0.078 mmol/L
Brown adipose tissue Lipoprotein lipase activity ([2]; sham rats): 1196 ± 83 μU/g protein
Brown adipose tissue weight ([2]; sham rats): 0.306 ± 0.044 g
Plasma glucose ([2]; sham rats): 9.03 ± 0.49 mmol/L
Plasma insulin ([2]; sham rats): 0.057 ± 0.004 nmol/L
Plasma leptin ([2]; sham rats): 2.019 ± 0.402 ng/mL
Plasma total cholesterol ([2]; sham rats): 1.15 ± 0.06 mmol/L
Plasma triglycerides ([2]; sham rats): 0.60 ± 0.12 mmol/L
Soleus muscle Lipoprotein lipase activity ([2]; sham rats): 53.9 ± 3.3 μU/g protein
Soleus muscle weight ([2]; sham rats): 0.098 ± 0.005 g
Total weight ([2]; sham rats): 238 ± 5 g
VastusLateralis muscle Lipoprotein lipase activity ([2]; sham rats): 16.2 ± 3.1 μU/g protein
VastusLateralis muscle weight ([2]; sham rats): 0.965 ± 0.034 g
White adipose tissue inguinal Lipoprotein lipase activity ([2]; sham rats): 160 ± 23 μU/g protein
White adipose tissue inguinal weight ([2]; sham rats): 0.435 ± 0.043 g
White adipose tissue retroperitoneal Lipoprotein lipase activity ([2]; sham rats): 1277 ± 56 μU/g protein
White adipose tissue retroperitoneal weight ([2]; sham rats): 1.058 ± 0.162 g
liver total cholesterol ([2]; sham rats): 0.096 ± 0.011 mmol/L
liver triglycerides ([2]; sham rats): 0.360 ± 0.102 mmol/L
OVX-induced increase in total serum cholesterol levels ([3]; 0.5 mg): completely prevented
prevention of body weight increase induced by ovariectomy ([3]; OVX rats, 0.5 mg): 64%
Cholesterol [3, 4]: 1.00 ± 0.11 mmol/L
Final Body Weight [3, 4]: 238 ± 4 g

C[C@]12CC[C@H](O)CC1=CC[C@@H]1[C@@H]2CC[C@]2(C)C(=O)CC[C@@H]12 [DHEA, dehydroepiandrosterone]
decrease of body fat [1]: 59%
decrease of retroperitoneal adipose tissue [1]: 75%
Retroperitoneal adipose tissue [1]: 0.92 ± 0.17 g
Fat % [1]: 7.8 ± 0.8%
Brown adipose tissue Lipoprotein lipase activity ([2]; OVX rats): 1069 ± 96 μU/g protein
Brown adipose tissue weight ([2]; OVX rats): 0.342 ± 0.049 g
Plasma glucose ([2]; OVX rats): 8.64 ± 0.24 mmol/L
Plasma insulin ([2]; OVX rats): 0.052 ± 0.009 nmol/L
Plasma leptin ([2]; OVX rats): 2.757 ± 0.631 ng/mL
Plasma total cholesterol ([2]; OVX rats): 1.57 ± 0.12 mmol/L
Plasma triglycerides ([2]; OVX rats): 0.62 ± 0.08 mmol/L
Soleus muscle Lipoprotein lipase activity ([2]; OVX rats): 45.9 ± 4.7 μU/g protein
Soleus muscle weight ([2]; OVX rats): 0.103 ± 0.005 g
Total weight ([2]; OVX rats): 274 ± 9 g
VastusLateralis muscle Lipoprotein lipase activity ([2]; OVX rats): 13.1 ± 5.4 μU/g protein
VastusLateralis muscle weight ([2]; OVX rats): 0.920 ± 0.049 g
White adipose tissue inguinal Lipoprotein lipase activity ([2]; OVX rats): 583 ± 134 μU/g protein
White adipose tissue inguinal weight ([2]; OVX rats): 0.885 ± 0.156 g
White adipose tissue retroperitoneal Lipoprotein lipase activity ([2]; OVX rats): 1905 ± 112 μU/g protein
White adipose tissue retroperitoneal weight ([2]; OVX rats): 1.699 ± 0.151 g
liver total cholesterol ([2]; OVX rats): 0.079 ± 0.005 mmol/L
liver triglycerides ([2]; OVX rats): 0.165 ± 0.047 mmol/L
Brown adipose tissue Lipoprotein lipase activity ([2]; sham rats): 982 ± 72 μU/g protein
Brown adipose tissue weight ([2]; sham rats): 0.373 ± 0.036 g
Plasma glucose ([2]; sham rats): 8.05 ± 0.51 mmol/L
Plasma insulin ([2]; sham rats): 0.048 ± 0.012 nmol/L
Plasma leptin ([2]; sham rats): 1.977 ± 0.255 ng/mL
Plasma total cholesterol ([2]; sham rats): 1.59 ± 0.17 mmol/L
Plasma triglycerides ([2]; sham rats): 0.61 ± 0.11 mmol/L
Soleus muscle Lipoprotein lipase activity ([2]; sham rats): 53.6 ± 7.5 μU/g protein
Soleus muscle weight ([2]; sham rats): 0.105 ± 0.004 g
Total weight ([2]; sham rats): 252 ± 5 g
VastusLateralis muscle Lipoprotein lipase activity ([2]; sham rats): 11.5 ± 2.0 μU/g protein
VastusLateralis muscle weight ([2]; sham rats): 0.893 ± 0.043 g
White adipose tissue inguinal Lipoprotein lipase activity ([2]; sham rats): 194 ± 45 μU/g protein
White adipose tissue inguinal weight ([2]; sham rats): 0.659 ± 0.075 g
White adipose tissue retroperitoneal Lipoprotein lipase activity ([2]; sham rats): 1177 ± 188 μU/g protein
White adipose tissue retroperitoneal weight ([2]; sham rats): 1.067 ± 0.149 g
liver total cholesterol ([2]; sham rats): 0.068 ± 0.003 mmol/L
liver triglycerides ([2]; sham rats): 0.038 ± 0.007 mmol/L
